In assay [1] the test system is B. longum subsp. infantis. Put plainly: Viability of B. longum subsp. infantis after exposure to acid reducing compounds (anaerobic CFU). The class given is cell-based. The conditions noted are these: 1 μg/ml and 0.5 μg/ml in citrate buffer (pH 5), 3 hours at 37° C.; with respect to buffer only controls. As to the method:
Viability of B. longum subsp. infantis following exposure to various acid reducing compounds was examined. The benzimidazole derivative compounds omeprazole, esomeprazole, lansoprazole, pantoprazole, and rabeprazole and the H2 receptor antagonist famotidine were suspended in citrate buffer (pH 5) to concentrations of 1 μg/ml and 0.5 μg/ml. An amount of 2.4×10^8 colony forming units (CFU) B. longum subsp. infantis was pelleted and resuspended in each of the citrate buffer and drug solutions. Controls included 2.4×10^8 CFU B. longum subsp. infantis added to citrate buffer alone. Cells were incubated for 3 hours at 37° C. and then plated under anaerobic conditions. Anaerobic CFU were quantified to assess viability.

In assay [2] the test system is B. longum subsp. infantis. Briefly: Growth of B. longum subsp. infantis in the presence of acid-reducing compounds (OD600). The conditions noted are these: 24 hours; 125 μg/mL; versus vehicle controls. It is filed as cell-based. As to the method:
Growth of B. longum subsp. infantis was assessed in the presence of various acid-reducing compounds, including proton pump inhibitor (PPI) compounds and an H2 receptor antagonist. Stock solutions were prepared by adding 10 mg/mL omeprazole, esomeprazole, lansoprazole, pantoprazole, rabeprazole, and famotidine to DMSO. The stock solutions were diluted 1:4 in PBS and then added in 2-fold serial dilutions to Reinforced Clostridial Media (RCM). The media was then inoculated with 5×10^5 colony forming units (CFU) of B. longum subsp. infantis and incubated under anaerobic conditions at 37° C. Vehicle only control groups consisted of 5×10^5 CFU B. longum subsp. infantis incubated in RCM with the same amounts of PBS and DMSO as the PPI conditions for each dose.

As to `Cc1c(OCC(F)(F)F)ccnc1C[S+]([O-])c1nc2ccccc2[nH]1` (centres unmarked) [lansoprazole], the “anaerobic CFU counts” value in assay [1] was “generally higher”. The OD600 values entry in assay [2] is “reduced OD600 values with respect to vehicle controls”.

These data come from US12364721B2, “Compositions and methods for treatment of inflammatory and immune diseases” (Prolacta Bioscience, Inc., priority 2019, dated 2025).
